# Experiments:
# NB4 cells [1] = assay: Resazurin cell viability assay; format: cell-based; details: Homo sapiens
# Method: (§1) Cell viability was determined by a resazurin-based assay as described previously. Briefly, 5 × 10^3 cells/well were seeded into 96-well plates (Corning Inc., Corning, NY, USA) in 180 µL of RPMI 1640 medium and incubated overnight at 37 °C with 5% CO2. Next day, cells were treated with rilpivirine after serially diluted (1:2 dilution for final concentrations ranging from 0.625 µM to 40 µM) or DMSO (0.1%) for specified time periods (24, 48, or 72 h). At the end of the treatment period, 20 µL of resazurin (0.1 mg/mL in PBS) was added per well and incubated for further 4 h. Fluorescence intensities were recorded at 570 nm (excitation)/585 nm (emission) using an EnVision® multilabel plate reader (PerkinElmer, MA, USA). Drug concentrations required for cell viability reduction by 50% (GI50) compared with untreated (DMSO vehicle-treated only) control were determined by a non-linear regression model using GraphPad Prism software version 7.02 (La Jolla, CA, USA).
# U-937 cells [2] = assay: Resazurin cell viability assay; format: cell-based; details: Homo sapiens
# Method: as §1
# HL-60 cells [3] = assay: Colony formation assay; format: cell-based, human; details: 2.5, 5, or 10 µM, 10 days
# Method: (§2) For colony formation assay, 2 × 10^3 cells/well (in 6-well plates) were treated for 10 days with rilpivirine (2.5, 5, or 10 µM) or DMSO (0.1%) and incubated with 1.5 mL of cytokine-free H4230 medium ([…] Technologies, Inc., Vancouver, BC, Canada). After the incubation period, cells were stained with 300 µL/well of 3-(4,5-dimethylthiazol-2-yl)-2,5-diphenyltetrazolium bromide solution (0.5 mg/mL in PBS) (Sigma-Aldrich, St Louis, MO, USA) and incubated for 1 h. Colonies were then counted on an inverted microscope.
# NB4 cells [4] = assay: Colony formation assay; format: cell-based, human; details: 2.5, 5, or 10 µM, 10 days
# Method: as §2
# HL-60 cells [5] = assay: Cell cycle analysis (PI, flow cytometry); format: cell-based, human; details: for G2-M cells: 24 h
# Method: (§3) To determine the effect of rilpivirine on cell-cycle distribution a flow cytometry-based analysis was performed after staining the untreated and treated cells with propidium iodide (PI) solution [22]. Briefly, 6 × 10^4 cells/well were seeded in 3 mL of medium per well in 6-well plates. After overnight incubation at 37 °C in 5% CO2, the cells were incubated with the test compounds for specified time points. The medium-containing cells were then taken out from the wells and transferred to FACS tubes. Cells were then pelleted by centrifugation at 300 g for 5 min. Afterward, cells were fixed by using 70% (v/v) ice-cold ethanol for 15 min and then again pelleted by centrifugation (300 g for 5 min). Finally, the cells were incubated with 200 µL of PI staining solution (50 μg/mL PI, 0.1% sodium citrate, 0.1 mg/mL RNase A, and 0.1% Triton X-100) for 1.5 h at room temperature in the dark. After the incubation period, the cells were analysed using a CytoFLEX flow cytometer (Beckman Coulter Inc., Brea, CA, USA). CytExpert software version 2.1 was used for data analysis and graph preparation.
# K-562 cells = assay: Cell cycle analysis (PI, flow cytometry); format: cell-based, human; details: 20 μM, 24 h
# Method: as §3
# KG1 cells = assay: Cell cycle analysis (PI, flow cytometry); format: cell-based, human; details: 10 µM or 20 µM, 24 h
# Method: as §3
# NB4 cells [6] = assay: Cell cycle analysis (PI, flow cytometry); format: cell-based, human; details: 20 μM, 24 h
# Method: as §3
# U-937 cells [7] = assay: Cell cycle analysis (PI, flow cytometry); format: cell-based, human; details: 20 μM, 24 h
# Method: as §3
# [8] = tested on: Aurora A kinase signalling pathway proteins in HL-60 and NB4 cells; assay: Western blotting, concentration series; format: cell-based, human; details: 24 h
# Method: Western blotting was performed following a method described previously. Briefly, 8 × 10^5 to 1 × 10^6 cells were seeded in petri dishes with 8 to 10 mL of culture medium and incubated overnight at 37 °C, 5% CO2. Then, the cells were treated with the test compounds and further incubated for the specified time point. Cells were then lysed using a lysis buffer containing protease inhibitors, and proteins were extracted by centrifugation. Protein concentrations were determined by using a Bio-Rad DC^TM protein assay kit (Bio-Rad Laboratories, Hercules, CA, USA). A total of 20–30 μg of proteins was loaded onto each well of 4–20% polyacrylamide gels for electrophoresis. Once electrophoresis was completed, gels were placed on pre-soaked polyvinylidene difluoride membranes and blocked with 10% skimmed milk in 1 × Tris-buffered saline and Tween (TBST). Then, the blots were incubated with primary antibodies, followed by washing with TBST for 4 × 20 min. After this, the blots were incubated with the appropriate horseradish peroxidase (HRP)-conjugated secondary antibody, followed by washing again with TBST for 4 × 20 min. The protein bands were then detected with either ECL prime (Amersham^TM ECL^TM prime Western blotting detection reagent) or ECL select (Amersham^TM ECL^TM select Western blotting detection reagent) depending on the abundance of the protein of interest. The blots were imaged using the Bio-Rad ChemiDoc^TM MP imaging system (Bio-Rad Laboratories, Hercules, CA, USA). All the primary and secondary antibodies used in this study were purchased from Cell Signaling Technology (Danvers, MA, USA).
# PIM1 = target: PIM1; parameters: method as in PMID 36297298; details: apparent Ki from IC50 and Km (ATP); cited from earlier work
structure (smiles),measurement,setting,value
"Cc1cc(/C=C/C#N)cc(C)c1Nc1ccnc(Nc2ccc(C#N)cc2)n1 [rilpivirine, (E)-4-((4-((4-(2-cyanoethenyl)-2,6-dimethylphenyl)amino)pyrimidin-2-yl)amino)benzonitrile]",GI50,"NB4 cells [1]; NB-4, 24 h",8.94 ± 1.02 µM
same,GI50,"NB4 cells [1]; NB-4, 48 h",6.54 ± 0.83 µM
same,GI50,"NB4 cells [1]; NB-4, 72 h",4.6 ± 0.35 µM
same,GI50,"U-937 cells [2]; U-937, 24 h",12.1 ± 2.97 µM
same,GI50,"U-937 cells [2]; U-937, 48 h",5.77 ± 1 µM
same,GI50,"U-937 cells [2]; U-937, 72 h",4.79 ± 0.17 µM
same,clonogenic growth,HL-60 cells [3],significantly decreased
same,clonogenic growth,NB4 cells [4],significantly decreased
same,G2-M cells,HL-60 cells [5]; 5 μM,31.15%
same,G2-M cells,HL-60 cells [5]; 10 µM,40.70%
same,time of maximum accumulation in the G2/M phase,"HL-60 cells [5]; 10 µM, time course",16 h
same,G2-M cells,HL-60 cells [5]; 20 μM,46.32%
same,G2-M cells,K-562 cells,46.23%
same,cell-cycle arrest,KG1 cells,induced G2/M cell-cycle arrest
same,G2-M cells,NB4 cells [6],55.25%
same,G2-M cells,U-937 cells [7],36.61%
same,CDK1 level,[8],reduced
same,Cdc25C (Ser198) phosphorylation,[8],inhibited
same,PARP and caspase 3 cleavage,[8],increased
same,Plk1 (Thr210) phosphorylation,[8],inhibited
same,anti-apoptotic protein Mcl-1,[8],down-regulation
same,cyclin B1 level,[8],reduced
same,phospho-Histone H3 (Ser10),[8],induced
same,phosphorylation of CENP (Ser7),[8],inhibited
same,total Aurora A,[8],without affecting
same,auto-phosphorylation of Aurora A at Thr288,[8]; concentration-dependent,suppressed
same,Ki,PIM1,0.52 µM

# Reference: publication PMC9954146, “Anti-Leukaemic Activity of Rilpivirine Is Mediated by Aurora A Kinase Inhibition” (Cancers, 2023)
